Assay results reported in article PMC13095408, “DBeQ derivative targets vacuolar protein sorting 4 functions in cancer cells and suppresses tumor growth in mice” (The Journal of Pharmacology and Experimental Therapeutics, 2025).

Experiments:
[1] = tested on: GFP-CHMP4B-expressing U2OS cells; test: GFP-CHMP4B accumulation cell-based assay (high-content microscopy)
Procedure: Plates were then scanned using the 20× objective for 1 hour with ≥100 cells/well across 6 fields/well. […] For all other assays, the cells were cultured overnight in black glass-bottom 96-well plates (Cellvis; P96-1.5H-N) then stained, rinsed, and treated with SM containing the indicated compounds (0.1% DMSO or 0.1% DMSO/0.1% ethanol [vehicle] final). Plates were scanned using the 20× NA .70 objective at the indicated intervals with ≥ 300 cells/well across 3 fields/well. […]

[2] = molecular target: T1, VPS4B (Homo sapiens, UniProt O75351); test: VPS4B ATPase activity, EnzChek Phosphate assay; format: biochemical; set-up: His tag (pET28a vector-encoded) (N); made in house; host or cells: Escherichia coli BL21(DE3)
T1 sequence (O75351 1-444): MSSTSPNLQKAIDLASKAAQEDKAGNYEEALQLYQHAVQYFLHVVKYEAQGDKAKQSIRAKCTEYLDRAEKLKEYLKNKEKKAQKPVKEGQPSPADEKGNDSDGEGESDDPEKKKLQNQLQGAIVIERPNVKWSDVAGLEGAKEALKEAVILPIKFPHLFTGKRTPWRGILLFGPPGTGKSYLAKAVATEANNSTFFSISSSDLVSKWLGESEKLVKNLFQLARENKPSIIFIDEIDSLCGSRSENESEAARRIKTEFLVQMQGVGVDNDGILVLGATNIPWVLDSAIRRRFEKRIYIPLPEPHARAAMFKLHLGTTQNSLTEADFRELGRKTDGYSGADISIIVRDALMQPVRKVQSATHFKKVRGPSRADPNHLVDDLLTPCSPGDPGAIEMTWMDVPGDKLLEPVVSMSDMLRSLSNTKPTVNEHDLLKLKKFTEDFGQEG
Procedure: VPS4B and VCP ATPase activities were measured using the EnzChek Phosphate assay for the quantification of released phosphate. Assay buffers were based on literature precedents ([Cupido et al, 2019], [2021]) as follows: VPS4B buffer (20 mM HEPES-KOH, pH 7.4, 25 mM KOAc, 2 mM MgCl2, 5 mM (NH4)2SO4, 0.5 mM CaCl2, 2.5 mM DTT, 0.1 mg/mL BSA, 0.005% v/v Triton X-100), VCP buffer (20 mM HEPES-NaOH, pH 7.4, 20 mM NaCl, 10 mM MgCl2, 5 mM (NH4)2SO4, 0.5 mM CaCl2, 2.5 mM DTT, 0.1 mg/mL BSA, 0.005% v/v Triton X-100). In black clear-bottom 384-well plates, 22.5 μL of 5% DMSO or 40× test compounds diluted in the respective assay buffer was added to each well. ATPases were diluted to 1 μM in the respective buffers containing 2× EnzChek Phosphate assay coupling reagents of 400 μM MESG and 2 U of PNP, then 25 μL was added to each well. Plates were mixed at 1000 rpm for 30 minutes at RT while being protected from light. The reaction was initiated by adding 2.5 μL of 20 mM MgATP or water followed by mixing at 1200 rpm for 30 seconds at RT. Plates were measured at 360 nm using a CLARIOstar plate reader (BMG LABTECH) for 20 minutes at 37 °C. ATPase activity was calculated as the amount of phosphate released over a 5-minute interval under linear initial velocity conditions. The remaining ATPase activity was calculated by normalizing compound-treated activity values to the DMSO control. IC50 was calculated by fitting normalized values to a sigmoidal dose-response curve with Hill slope = −1 using Graph Pad Prism 10.0.
To identify VPS4i, we developed enzyme- and cell-based VPS4 functional assays to serve as VPS4i-screening platforms. For the enzyme-based assay, we used the colorimetric EnzChek Phosphate assay that detects free phosphate with the advantage of continuous measurement of ATP hydrolysis over time. […] Due to the high sequence and structural similarity of AAA-ATPases, we also established a VCP ATPase assay to evaluate hit selectivity. […] For the cell-based assay, our approach was based on how VPS4 inhibition causes the accumulation of ESCRT-III ([Babst et al, 1998]; [Katoh et al, 2003]). We used an N-terminal GFP-tagged CHMP4B reporter system because it is the most abundant ESCRT-III subunit ([Katoh et al, 2004]; [Teis et al, 2008]). Our aim was to test compounds under short-term serum and amino acid starvation to stimulate ESCRT activity for easier detection of inhibitors ([Takahashi et al, 2018], [2019]). […] Overall, we established 2 systems for VPS4i screening, a VPS4B ATPase activity assay and a GFP-CHMP4B accumulation cell-based assay.

[3] = screened at 1 µM, mean ± S.D., Supplemental Table 2
[4] = screened at 5 µM, mean ± S.D., Supplemental Table 2
[5] = screened at 1 μM, starvation media, 1 hour, foci intensity per cell normalized to 4-107, mean ± SD, Table 1
[6] = remaining ATPase activity, screened at 5 μM, mean ± SD, Table 1

Compound | GFP-CHMP4B (% 4-107) [1, 3] | VPS4B ATPase (% DMSO) [2, 4] | GFP-CHMP4B (% 4-107) [1, 5] | VPS4B ATPase (% DMSO) [2, 6]
COc1ncnc2c1ccn2-c1nc(NCCc2cccnc2)c2cccc(OC)c2n1 [Compound 5-65] | 1.69 ± 0.46 % 4-107 | 89.36 ± 2.84 % DMSO |  | 
COc1cccc2c(NCc3ccccc3)nc(Nc3ccc4scnc4c3)nc12 [Compound 5-67] | 1.60 ± 0.33 % 4-107 | 51.60 ± 0.35 % DMSO |  | 
COc1cccc2c(NCc3ccccc3)nc(Nc3ccc4ncsc4c3)nc12 [Compound 5-69] | 2.10 ± 1.22 % 4-107 | 51.27 ± 1.54 % DMSO |  | 
COc1cccc2c(NCCc3ccccc3)nc(NCc3ccccc3)nc12 [Compound 5-73] | 5.34 ± 1.17 % 4-107 | 41.71 ± 2.35 % DMSO |  | 
COc1cccc2c(NCc3ccccc3)nc(NCCc3ccccc3)nc12 [Compound 5-75] | 2.25 ± 1.07 % 4-107 | 45.53 ± 1.40 % DMSO |  | 
COc1cccc2c(NCc3ccccc3)nc(Nc3ccc4ccccc4c3)nc12.Cl [Compound 5-79] | 3.40 ± 0.70 % 4-107 | 76.35 ± 3.47 % DMSO |  | 
COc1cccc2c(NCc3ccccc3)nc(N[C@@H](C)c3ccccc3)nc12 [Compound 5-81] | 7.65 ± 7.10 % 4-107 | 43.91 ± 0.05 % DMSO |  | 
COc1cccc2c(NCCc3ccccc3)nc(N[C@@H](C)c3ccccc3)nc12 [Compound 5-83] | 1.83 ± 1.02 % 4-107 | 42.92 ± 3.93 % DMSO |  | 
COc1cccc2c(NCc3ccccc3)nc(N[C@H](C)c3ccccc3)nc12 [Compound 5-89] | 9.13 ± 2.82 % 4-107 | 46.68 ± 2.80 % DMSO |  | 
COc1cccc2c(NCCc3ccccc3)nc(N[C@H](C)c3ccccc3)nc12 [Compound 5-91] | 1.69 ± 0.12 % 4-107 | 40.44 ± 0.01 % DMSO |  | 
COc1cccc2c(NCc3ccccc3)nc(N[C@@H](C)c3ccc4ccccc4c3)nc12 [Compound 5-93] | 5.34 ± 4.29 % 4-107 | 58.00 ± 2.01 % DMSO |  | 
COc1cccc2c(NCc3ccccc3)nc(N[C@H](C)c3ccc4ccccc4c3)nc12 [Compound 5-95] | 2.43 ± 1.04 % 4-107 | 42.87 ± 1.98 % DMSO |  | 
COc1cccc2c(NCCc3ccccc3)nc(N[C@@H](C)c3ccc4ccccc4c3)nc12 [Compound 5-97] | 1.82 ± 0.02 % 4-107 | 49.73 ± 0.04 % DMSO |  | 
COc1cccc2c(NCCc3ccccc3)nc(N[C@H](C)c3ccc4ccccc4c3)nc12 [Compound 5-99] | 3.40 ± 1.02 % 4-107 | 45.77 ± 2.14 % DMSO |  | 
COc1cccc2c(NCc3ccccc3)nc(N[C@@H](C)c3cccc4ccccc34)nc12 [Compound 5-101] | 2.43 ± 1.02 % 4-107 | 49.27 ± 0.19 % DMSO |  | 
COc1cccc2c(NCc3ccccc3)nc(N[C@H](C)c3cccc4ccccc34)nc12 [Compound 5-103] | 4.36 ± 1.56 % 4-107 | 45.60 ± 2.79 % DMSO |  | 

Compound | GFP-CHMP4B (% 4-107) [1, 3] | VPS4B ATPase (% DMSO) [2, 4] | GFP-CHMP4B (% 4-107) [1, 5] | VPS4B ATPase (% DMSO) [2, 6]
COc1cccc2c(NCc3ccccc3)nc(NCc3nc4ccccc4s3)nc12 [Compound 5-105] | 1.30 ± 1.20 % 4-107 | 56.25 ± 2.23 % DMSO |  | 
COc1cccc2c(NCCc3ccccc3)nc(NCc3nc4ccccc4s3)nc12 [Compound 5-107] | 0.24 ± 0.08 % 4-107 | 75.99 ± 2.63 % DMSO |  | 
COc1ccc2cccc(Nc3nc(NCc4ccccc4)c4cccc(OC)c4n3)c2c1 [Compound 5-119] | 2.49 ± 0.70 % 4-107 | 53.27 ± 1.65 % DMSO |  | 
COc1cccc2c(NCc3ccccc3)nc(Nc3cccc4cc5ccccc5cc34)nc12 [Compound 5-129] | 1.25 ± 0.86 % 4-107 | 63.24 ± 0.19 % DMSO |  | 
COC(=O)c1cccc2c1ccn2-c1nc(NCc2ccccc2)c2cccc(OC)c2n1 [Compound 5-135] | 4.63 ± 2.05 % 4-107 | 86.66 ± 2.70 % DMSO |  | 
COc1cccc2c(NCc3ccccc3)nc(-n3ccc4c(C(=O)O)cccc43)nc12 [Compound 5-137] | 2.21 ± 0.41 % 4-107 | 96.09 ± 2.11 % DMSO |  | 
COc1cccc2c(NCc3ccccc3)nc(-n3ccc4c(C(N)=O)cccc43)nc12 [Compound 5-139] | 1.75 ± 0.11 % 4-107 | 90.05 ± 5.58 % DMSO |  | 
O=[N+]([O-])c1cccc2c(NCc3ccccc3)nc(NCc3ccccc3)nc12 [Compound 5] | 15.05 ± 0.55 % 4-107 | 86.38 ± 2.37 % DMSO | 15.05 ± 0.55 % 4-107 | 86.38 ± 2.37 % DMSO
COc1cccc2c(NCc3ccccc3)nc(NCc3cccc(OC(F)(F)F)c3)nc12 [Compound 7-11] | 22.15 ± 1.19 % 4-107 | 46.29 ± 0.61 % DMSO |  | 
COc1cccc2c(NCc3ccccc3)nc(NC(c3ccc(F)cc3)c3ccc(F)cc3)nc12 [Compound 7-13] | 12.60 ± 1.04 % 4-107 | 39.86 ± 1.36 % DMSO |  | 
COc1cccc2c(NCc3ccccc3)nc(NC(c3ccccc3)c3ccccc3)nc12 [Compound 7-23] | 23.20 ± 6.42 % 4-107 | 37.77 ± 2.37 % DMSO |  | 
COc1ccc2nc(NCc3ccccc3)nc(NCc3ccccc3)c2c1 [Compound 7] | 8.92 ± 2.87 % 4-107 | 43.86 ± 1.20 % DMSO | 8.92 ± 2.87 % 4-107 | 43.86 ± 1.20 % DMSO
COC(=O)c1ccc2ccn(-c3nc(NCc4ccccc4)c4cccc(OC)c4n3)c2c1 [Compound 8] | 1.38 ± 0.73 % 4-107 | 82.10 ± 2.19 % DMSO | 1.38 ± 0.73 % 4-107 | 82.10 ± 2.19 % DMSO
COc1cccc2c(NCc3ccccc3)nc(-c3cccc4ccccc34)nc12 [Compound 10] | 3.97 ± 0.16 % 4-107 | 49.12 ± 2.89 % DMSO | 3.97 ± 0.16 % 4-107 | 49.12 ± 2.89 % DMSO
COc1cccc2c(NCc3ccccc3)nc(NCc3ccc4ccccc4c3)nc12 [Compound 12] | 10.42 ± 6.42 % 4-107 | 30.39 ± 0.43 % DMSO | 10.42 ± 6.42 % 4-107 | 30.39 ± 0.43 % DMSO
COC(=O)c1cccc(CNc2nc(NCc3ccccc3)c3cccc(OC)c3n2)c1 [Compound 14] | 13.39 ± 9.03 % 4-107 | 42.10 ± 0.26 % DMSO | 13.39 ± 9.03 % 4-107 | 42.10 ± 0.26 % DMSO
